Measurements published in article PMC4979471 (Cell Death Discovery, 2015).
Like-named read-outs stand apart in the source and are kept apart here.

What was measured:
Assay in all cases: Kinase selectivity, P33-radiolabeled assay
Type in all cases: biochemical
Details in all cases: 10 μM ATP
CAMK2d = biological target: T1, CAMK2d (Homo sapiens, UniProt Q13557)
T1 construct: purchased Reaction Biology Corp
Procedure: (§1) The compound was tested at a single dose in duplicate at 10 μM. Reactions were carried out at 10 μM ATP. Data are reported as % enzyme activity (relative to DMSO controls). The full data set is shown in the Supplementary Table I.

DRAK1/STK17A = biological target: T2, DRAK1/STK17A (Homo sapiens, UniProt Q9UEE5)
T2 construct: purchased Reaction Biology Corp
T2 sequence (Q9UEE5 1-414): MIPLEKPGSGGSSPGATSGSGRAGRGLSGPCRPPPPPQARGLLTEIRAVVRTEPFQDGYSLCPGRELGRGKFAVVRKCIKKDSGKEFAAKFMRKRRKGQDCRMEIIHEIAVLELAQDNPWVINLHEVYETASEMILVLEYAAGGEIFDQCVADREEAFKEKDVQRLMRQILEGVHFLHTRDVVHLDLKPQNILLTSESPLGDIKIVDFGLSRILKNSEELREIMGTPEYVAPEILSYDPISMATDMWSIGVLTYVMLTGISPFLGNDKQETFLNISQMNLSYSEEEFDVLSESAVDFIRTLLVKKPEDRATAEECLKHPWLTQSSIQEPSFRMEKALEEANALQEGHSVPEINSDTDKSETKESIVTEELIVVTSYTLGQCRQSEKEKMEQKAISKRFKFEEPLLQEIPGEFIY
Procedure: as §1

FGFR3 = biological target: T3, FGFR3 (Homo sapiens, UniProt P22607)
T3 construct: purchased Reaction Biology Corp
Procedure: as §1

FGR = biological target: T4, FGR (Homo sapiens, UniProt P09769)
T4 construct: purchased Reaction Biology Corp
Procedure: as §1

JAK3 = biological target: T5, JAK3 (Homo sapiens, UniProt P52333)
T5 construct: purchased Reaction Biology Corp
T5 sequence (P52333 1-1124): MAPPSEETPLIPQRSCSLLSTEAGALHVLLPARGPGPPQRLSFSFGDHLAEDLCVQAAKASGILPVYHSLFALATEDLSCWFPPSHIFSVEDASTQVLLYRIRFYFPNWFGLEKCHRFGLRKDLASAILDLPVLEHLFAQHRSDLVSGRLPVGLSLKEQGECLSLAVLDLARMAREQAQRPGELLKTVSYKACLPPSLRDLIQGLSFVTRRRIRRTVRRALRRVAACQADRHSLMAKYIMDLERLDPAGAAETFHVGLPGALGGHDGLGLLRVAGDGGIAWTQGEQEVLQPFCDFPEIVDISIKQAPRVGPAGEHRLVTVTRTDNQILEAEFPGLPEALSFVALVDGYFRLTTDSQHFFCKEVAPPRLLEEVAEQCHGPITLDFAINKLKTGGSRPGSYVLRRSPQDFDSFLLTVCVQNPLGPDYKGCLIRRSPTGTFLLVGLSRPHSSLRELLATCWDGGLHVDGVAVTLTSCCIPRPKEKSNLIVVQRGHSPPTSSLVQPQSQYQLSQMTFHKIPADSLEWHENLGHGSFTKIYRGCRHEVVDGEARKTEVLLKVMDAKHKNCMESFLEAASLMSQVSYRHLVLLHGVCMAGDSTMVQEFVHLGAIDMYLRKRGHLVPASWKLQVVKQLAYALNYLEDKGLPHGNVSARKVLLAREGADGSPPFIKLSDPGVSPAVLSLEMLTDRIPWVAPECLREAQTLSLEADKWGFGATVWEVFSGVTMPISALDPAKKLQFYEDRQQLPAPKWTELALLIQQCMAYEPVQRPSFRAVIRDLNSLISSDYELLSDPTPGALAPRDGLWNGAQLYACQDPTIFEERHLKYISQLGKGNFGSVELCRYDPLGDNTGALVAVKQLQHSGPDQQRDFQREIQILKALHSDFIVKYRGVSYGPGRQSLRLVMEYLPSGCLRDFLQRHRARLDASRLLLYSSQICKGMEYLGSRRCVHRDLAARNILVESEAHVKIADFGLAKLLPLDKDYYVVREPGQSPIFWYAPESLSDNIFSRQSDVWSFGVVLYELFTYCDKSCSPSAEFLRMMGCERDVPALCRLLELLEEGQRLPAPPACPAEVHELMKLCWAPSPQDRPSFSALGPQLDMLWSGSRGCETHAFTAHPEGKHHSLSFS
Procedure: as §1

MARK2/PAR-1Ba = biological target: T6, MARK2/PAR-1Ba (Homo sapiens, UniProt Q7KZI7)
T6 construct: purchased Reaction Biology Corp
Procedure: as §1

MSK1/RPS6KA5 = biological target: T7, MSK1/RPS6KA5 (Homo sapiens, UniProt O75582)
T7 construct: purchased Reaction Biology Corp
Procedure: as §1

SIK2 = biological target: T8, SIK2 (Homo sapiens, UniProt Q9H0K1)
T8 construct: purchased Reaction Biology Corp
Procedure: as §1

STK22D/TSSK1 = biological target: T9, STK22D/TSSK1 (Homo sapiens, UniProt Q9BXA7)
T9 construct: purchased Reaction Biology Corp
T9 sequence (Q9BXA7 1-367): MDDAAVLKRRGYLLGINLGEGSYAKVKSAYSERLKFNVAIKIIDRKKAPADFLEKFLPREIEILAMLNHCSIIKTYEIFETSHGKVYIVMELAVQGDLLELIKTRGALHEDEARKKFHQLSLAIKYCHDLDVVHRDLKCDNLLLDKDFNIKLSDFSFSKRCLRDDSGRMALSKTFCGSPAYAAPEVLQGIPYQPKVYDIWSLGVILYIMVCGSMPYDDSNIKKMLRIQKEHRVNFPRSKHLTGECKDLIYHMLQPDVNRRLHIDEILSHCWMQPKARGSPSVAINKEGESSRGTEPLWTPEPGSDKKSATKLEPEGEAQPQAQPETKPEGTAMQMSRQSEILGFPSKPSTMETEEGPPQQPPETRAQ
Procedure: as §1

[1] = read-out: % Enzyme Activity (relative to DMSO controls) AVG
[2] = read-out: % Enzyme Activity (relative to DMSO controls) Data 1
[3] = read-out: % Enzyme Activity (relative to DMSO controls) Data 2

T4 sequence (P09769 whole entry): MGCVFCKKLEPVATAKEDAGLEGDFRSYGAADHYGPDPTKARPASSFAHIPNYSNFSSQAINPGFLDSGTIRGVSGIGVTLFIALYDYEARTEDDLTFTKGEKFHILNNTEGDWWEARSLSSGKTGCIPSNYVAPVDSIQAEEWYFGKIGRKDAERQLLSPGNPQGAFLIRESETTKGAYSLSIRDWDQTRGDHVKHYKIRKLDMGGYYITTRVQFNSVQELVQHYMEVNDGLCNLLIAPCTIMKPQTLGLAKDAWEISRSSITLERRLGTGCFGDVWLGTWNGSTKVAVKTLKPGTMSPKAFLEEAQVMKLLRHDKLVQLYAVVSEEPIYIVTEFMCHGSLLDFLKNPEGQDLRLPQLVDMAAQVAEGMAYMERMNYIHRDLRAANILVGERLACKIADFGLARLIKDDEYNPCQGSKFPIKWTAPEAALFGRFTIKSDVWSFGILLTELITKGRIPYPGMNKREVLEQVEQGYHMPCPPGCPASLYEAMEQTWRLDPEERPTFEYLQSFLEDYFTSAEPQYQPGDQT
T8 sequence (Q9H0K1 whole entry): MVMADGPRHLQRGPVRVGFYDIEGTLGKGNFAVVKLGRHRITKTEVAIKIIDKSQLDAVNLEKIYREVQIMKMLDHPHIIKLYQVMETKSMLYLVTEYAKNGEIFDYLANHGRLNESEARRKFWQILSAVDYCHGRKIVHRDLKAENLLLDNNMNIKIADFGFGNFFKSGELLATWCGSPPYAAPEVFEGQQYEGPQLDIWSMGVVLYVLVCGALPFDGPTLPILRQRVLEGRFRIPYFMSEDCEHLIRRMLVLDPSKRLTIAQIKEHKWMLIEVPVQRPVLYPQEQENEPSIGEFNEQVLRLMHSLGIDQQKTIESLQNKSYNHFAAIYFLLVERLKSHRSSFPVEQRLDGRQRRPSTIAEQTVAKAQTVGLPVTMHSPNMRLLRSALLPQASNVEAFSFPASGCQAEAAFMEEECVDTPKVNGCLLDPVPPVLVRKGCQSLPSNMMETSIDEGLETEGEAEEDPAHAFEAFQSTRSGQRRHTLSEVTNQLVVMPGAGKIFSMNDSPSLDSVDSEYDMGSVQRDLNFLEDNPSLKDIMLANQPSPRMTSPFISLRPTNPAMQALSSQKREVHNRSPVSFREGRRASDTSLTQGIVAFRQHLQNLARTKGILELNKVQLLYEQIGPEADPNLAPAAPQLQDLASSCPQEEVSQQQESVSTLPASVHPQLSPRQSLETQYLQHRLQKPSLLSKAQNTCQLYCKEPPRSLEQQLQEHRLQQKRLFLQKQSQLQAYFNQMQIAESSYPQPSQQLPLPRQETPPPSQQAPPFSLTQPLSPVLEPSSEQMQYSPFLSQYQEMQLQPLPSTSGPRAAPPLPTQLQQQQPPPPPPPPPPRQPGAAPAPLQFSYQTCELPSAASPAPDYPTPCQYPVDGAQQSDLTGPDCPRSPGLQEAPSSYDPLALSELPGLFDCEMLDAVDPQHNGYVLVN
T7 sequence (O75582 whole entry): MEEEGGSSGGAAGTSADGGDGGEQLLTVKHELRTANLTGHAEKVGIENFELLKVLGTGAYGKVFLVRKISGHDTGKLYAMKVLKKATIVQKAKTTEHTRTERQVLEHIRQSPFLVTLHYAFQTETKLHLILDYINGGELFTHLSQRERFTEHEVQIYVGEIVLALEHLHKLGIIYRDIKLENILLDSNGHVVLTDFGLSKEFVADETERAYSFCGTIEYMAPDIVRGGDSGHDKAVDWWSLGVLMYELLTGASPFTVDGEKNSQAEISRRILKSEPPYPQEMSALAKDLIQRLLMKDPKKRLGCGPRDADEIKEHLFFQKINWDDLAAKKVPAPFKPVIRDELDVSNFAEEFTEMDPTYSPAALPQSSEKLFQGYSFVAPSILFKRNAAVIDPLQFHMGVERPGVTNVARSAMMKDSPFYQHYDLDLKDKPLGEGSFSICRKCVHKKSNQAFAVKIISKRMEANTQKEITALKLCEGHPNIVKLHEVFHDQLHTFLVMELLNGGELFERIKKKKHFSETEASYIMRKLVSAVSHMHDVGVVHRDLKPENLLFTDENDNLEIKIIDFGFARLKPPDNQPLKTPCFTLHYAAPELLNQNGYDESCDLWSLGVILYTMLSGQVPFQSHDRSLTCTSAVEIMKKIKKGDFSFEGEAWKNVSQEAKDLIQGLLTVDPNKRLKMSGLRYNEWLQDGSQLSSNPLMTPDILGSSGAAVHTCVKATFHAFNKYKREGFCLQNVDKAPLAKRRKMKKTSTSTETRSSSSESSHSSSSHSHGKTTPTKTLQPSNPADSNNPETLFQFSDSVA
T3 sequence (P22607 23-806): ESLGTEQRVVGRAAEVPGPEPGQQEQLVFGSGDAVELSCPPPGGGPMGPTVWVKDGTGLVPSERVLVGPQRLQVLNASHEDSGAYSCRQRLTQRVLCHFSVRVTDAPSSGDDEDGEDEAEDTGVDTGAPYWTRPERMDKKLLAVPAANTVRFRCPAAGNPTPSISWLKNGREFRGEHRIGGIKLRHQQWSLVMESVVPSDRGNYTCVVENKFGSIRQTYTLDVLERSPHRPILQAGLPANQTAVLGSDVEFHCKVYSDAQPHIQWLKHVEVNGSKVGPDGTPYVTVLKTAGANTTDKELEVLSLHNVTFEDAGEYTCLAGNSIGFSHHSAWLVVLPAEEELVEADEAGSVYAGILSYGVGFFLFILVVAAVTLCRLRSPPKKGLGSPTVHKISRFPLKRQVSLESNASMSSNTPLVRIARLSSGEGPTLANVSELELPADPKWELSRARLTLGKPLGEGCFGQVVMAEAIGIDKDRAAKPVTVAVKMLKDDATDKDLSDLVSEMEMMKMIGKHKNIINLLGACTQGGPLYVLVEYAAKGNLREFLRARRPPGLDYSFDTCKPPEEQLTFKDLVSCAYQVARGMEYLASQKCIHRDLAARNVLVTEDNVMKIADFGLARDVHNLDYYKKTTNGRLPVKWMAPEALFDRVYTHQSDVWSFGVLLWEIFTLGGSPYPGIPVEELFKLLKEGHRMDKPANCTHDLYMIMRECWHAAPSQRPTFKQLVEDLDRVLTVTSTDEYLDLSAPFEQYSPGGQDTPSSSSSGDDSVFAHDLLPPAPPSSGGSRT
T6 sequence (Q7KZI7 whole entry): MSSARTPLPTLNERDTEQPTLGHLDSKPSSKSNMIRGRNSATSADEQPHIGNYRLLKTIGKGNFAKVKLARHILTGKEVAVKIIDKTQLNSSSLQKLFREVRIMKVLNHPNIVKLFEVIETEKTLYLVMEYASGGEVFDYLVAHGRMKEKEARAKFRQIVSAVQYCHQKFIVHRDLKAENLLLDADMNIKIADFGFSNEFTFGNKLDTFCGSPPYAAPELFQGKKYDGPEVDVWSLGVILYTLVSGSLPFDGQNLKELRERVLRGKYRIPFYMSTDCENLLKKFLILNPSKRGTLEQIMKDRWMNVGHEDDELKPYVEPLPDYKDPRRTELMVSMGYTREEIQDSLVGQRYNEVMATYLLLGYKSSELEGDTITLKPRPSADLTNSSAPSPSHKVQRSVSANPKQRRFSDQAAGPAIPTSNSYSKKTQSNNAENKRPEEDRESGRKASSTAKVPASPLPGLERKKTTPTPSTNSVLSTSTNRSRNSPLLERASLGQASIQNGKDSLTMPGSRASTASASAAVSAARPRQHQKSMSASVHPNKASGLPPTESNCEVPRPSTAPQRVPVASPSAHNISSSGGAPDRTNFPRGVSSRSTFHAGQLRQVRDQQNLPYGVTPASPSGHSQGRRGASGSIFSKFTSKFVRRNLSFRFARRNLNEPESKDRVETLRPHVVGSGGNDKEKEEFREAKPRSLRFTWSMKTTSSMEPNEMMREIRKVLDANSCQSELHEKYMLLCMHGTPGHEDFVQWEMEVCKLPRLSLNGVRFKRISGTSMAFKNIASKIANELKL
T1 sequence (Q13557 whole entry): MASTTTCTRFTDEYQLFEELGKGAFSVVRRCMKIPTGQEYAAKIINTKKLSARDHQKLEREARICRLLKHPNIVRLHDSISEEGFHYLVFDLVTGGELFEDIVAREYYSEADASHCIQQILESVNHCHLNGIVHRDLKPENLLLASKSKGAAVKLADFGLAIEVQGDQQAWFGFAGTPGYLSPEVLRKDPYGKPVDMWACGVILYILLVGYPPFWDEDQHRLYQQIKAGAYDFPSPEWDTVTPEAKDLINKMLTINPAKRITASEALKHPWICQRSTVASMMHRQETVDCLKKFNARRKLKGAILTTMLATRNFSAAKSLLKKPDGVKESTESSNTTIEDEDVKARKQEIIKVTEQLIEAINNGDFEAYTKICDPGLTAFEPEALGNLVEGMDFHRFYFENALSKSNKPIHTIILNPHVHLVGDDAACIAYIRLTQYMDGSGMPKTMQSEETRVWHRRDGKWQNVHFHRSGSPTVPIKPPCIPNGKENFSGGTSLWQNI

CC(C)(C)C(=O)N1N=CC[C@H]1c1ccccc1 [GSK′963] was tested, and the remaining activity at 10 µM (CAMK2d; [1]) was 108%, the remaining activity at 10 µM (CAMK2d; [2]) was 109% and the remaining activity at 10 µM (CAMK2d; [3]) was 108%. The remaining activity at 10 µM (DRAK1/STK17A; [1]) was 99.7%, the remaining activity at 10 µM (DRAK1/STK17A; [2]) was 98.1% and the remaining activity at 10 µM (DRAK1/STK17A; [3]) was 101%. For the same molecule, the remaining activity at 10 µM (FGFR3; [1]) was 99.4%, the remaining activity at 10 µM (FGFR3; [2]) was 103% and the remaining activity at 10 µM (FGFR3; [3]) was 95.7%. It also gave a remaining activity at 10 µM (FGR; [1]) of 107%, a remaining activity at 10 µM (FGR; [2]) of 106% and a remaining activity at 10 µM (FGR; [3]) of 108%. For the same molecule, the remaining activity at 10 µM (JAK3; [1]) was 106%, the remaining activity at 10 µM (JAK3; [2]) was 105% and the remaining activity at 10 µM (JAK3; [3]) was 106%. It also gave a remaining activity at 10 µM (MARK2/PAR-1Ba; [1]) of 105%, a remaining activity at 10 µM (MARK2/PAR-1Ba; [2]) of 106% and a remaining activity at 10 µM (MARK2/PAR-1Ba; [3]) of 104%. It also gave a remaining activity at 10 µM (MSK1/RPS6KA5; [1]) of 108%, a remaining activity at 10 µM (MSK1/RPS6KA5; [2]) of 108% and a remaining activity at 10 µM (MSK1/RPS6KA5; [3]) of 108%. The remaining activity at 10 µM (SIK2; [1]) was 96.7%, the remaining activity at 10 µM (SIK2; [2]) was 94.8% and the remaining activity at 10 µM (SIK2; [3]) was 98.6%. It also gave a remaining activity at 10 µM (STK22D/TSSK1; [1]) of 110%, a remaining activity at 10 µM (STK22D/TSSK1; [2]) of 108% and a remaining activity at 10 µM (STK22D/TSSK1; [3]) of 112%.
